Data as given in patent US12076363B2, “Peptide epoxyketone proteasome inhibitors in combination with PIM kinase inhibitors for treatment of cancers” (ONYX PHARMACEUTICALS, INC., priority 2013, dated 2024).

What was measured:
PIM-2 [1] = test: PIM-2 ubiquitination (K-ε-GG ubiquitin remnant profiling) after proteasome inhibitor treatment, U266 cells; type: cell-based; conditions: PIM-2 lysine 61; U266 (4 hr); 125 nM; vs DMSO control
Procedure: (§1) Multiple myeloma cells were used to identify pro-survival proteins that were stabilized upon carfilzomib exposure by monitoring an increase in ubiquitination at specific sites associated with degradation. Two multiple myeloma cell lines, U266 and NCI-H929, were treated for 1 and 4 hours at 125 nM concentration of carfilzomib and bortezomib. DMSO treated cells were used as a control. The concentrations of active agents used were set at the IC80 of chymotrypsin activity inhibition and 48 hr cytotoxicity. The subunit inhibition profile obtained for these concentrations in vitro mimicked the subunit inhibition profile for carfilzomib in patients treated with a dose of 27 mg/m^2. Washed cell pellets were processed and profiled for ubiquitin modified proteins using a specific di-glycine antibody (PTMScan® Ubiquitin Remnant Motif (K-ε-GG) Kit #5562) that recognizes all lysine ubiquitin linkages on ubiquitin ligase substrates. All lysines on a protein that are modified with ubiquitin can be identified by this approach, and the lysines distal from the phosphorylation sites can then be associated with degradation. […] The increase in ubiquitin was also time dependent in NCI-H929 (Table 1).

PIM-2 [2] = test: PIM-2 ubiquitination (K-ε-GG ubiquitin remnant profiling) after proteasome inhibitor treatment, NCI-H929 cells; type: cell-based; conditions: PIM-2 lysine 61, 125 nM, vs DMSO control
Procedure: as §1

Row | SMILES | Ubiquitin fold increases (PIM-2 [1]) [fold] | Ubiquitin fold increases (PIM-2 [2]; H929 (1 hr)) [fold] | Ubiquitin fold increases (PIM-2 [2]; H929 (4 hr)) [fold]
1 | CC(C)C[C@H](NC(=O)[C@H](Cc1ccccc1)NC(=O)c1cnccn1)B(O)O [BTZ, bortezomib] | 31.5 | 11 | 21.4
2 | CC(C)C[C@H](NC(=O)[C@H](CCc1ccccc1)NC(=O)CN1CCOCC1)C(=O)N[C@@H](Cc1ccccc1)C(=O)N[C@@H](CC(C)C)C(=O)[C@@]1(C)CO1 [CFZ, carfilzomib] | 34.6 | 10.7 | 24.9
